# *1 amine or outer side, *2 acyl side, *3 side chain or, on linkers, in order; H or OH if unused. Where a SMILES comes first, the peptide text is derived from it. [ ]: non-standard residue; d: D form. The star is where a group is joined. X1 = O=C(C[C@H](N[*:1])c1ccc(O)cc1)[*:2]; dVal(3-OH) = CC(C)(O)[C@@H](N)C(=O)O; ΔIle(E) = CC/C(C)=C(/N)C(=O)O; Isovaleryl = CC(C)CC(=O)*; Agmatine = N=C(N)NCCCCN*; NMeA = CN[C@@H](C)C(=O)O; ΔVal = CC(C)=C(N)C(=O)O
# Assays:
# M. tuberculosis = type: cell-based, Mycobacterium tuberculosis
# [1] = tested on: M. tuberculosis MXV-SRM69 (rrl: t2847c, rrl: t2849g, Rv2935/ppsE: G146*); details: MXV-SRM69 (rrl: t2847c, rrl: t2849g, Rv2935/ppsE: G146*, 4 h)
smiles,measurement,setting,value
"CC/C(C)=C(/NC(=O)[C@H](NC(=O)[C@@H](NC(=O)[C@@H](CCCNC(=N)N)NC(=O)C(NC(=O)[C@H](NC(=O)C[C@H](NC(=O)[C@H](NC(=O)[C@H](NC(=O)[C@H](C)N(C)C(=O)[C@H](C)NC(=O)C(NC(=O)CC(C)C)=C(C)C)C(C)C)C(C)C)c1ccc(O)cc1)C(C)C)=C(C)C)C(C)C)C(C)C)C(=O)N[C@H](C)C(=O)N[C@@H](C(=O)NCCCCNC(=N)N)C(C)(C)O [MyxA, Myxovalargin A] (Isovaleryl-[ΔVal]A[NMeA][dV][dV][X1][dV][ΔVal][dR]V[dV][ΔIle(E)][dA][dVal(3-OH)]-Agmatine)",MIC shift of resistant mutant strains,M. tuberculosis,> 40 fold
same,frequency of spontaneous resistance mutants,M. tuberculosis,~6 × 10^–7
same,MIC,[1],>210 µg/mL
